Assay results taken from publication PMC6930638, “The Masked Polar Group Incorporation (MPGI) Strategy in Drug Design: Effects of Nitrogen Substitutions on Combretastatin and Isocombretastatin Tubulin Inhibitors” (Molecules, 2019).
Values after ≈ are worked out from the molar mass of the structure shown. Read-outs that look alike come from different tables or passages of the source.

Experiments:
[1] = tested on: rat primary pancreatic cells; assay: Toxicity against rat primary pancreatic cells (MTT); conditions: 0.05 µM, 7 h
Description: The toxicity of the compounds against rat primary pancreatic cells was evaluated by the MTT protocol (Table 2). […] Sodium taurocholate (NaTc) was also used at high concentrations as a model of acute pancreatitis in vitro.
Rat primary pancreatic cells were isolated as previously described. Afterwards, pancreatic cells were resuspended in Na-HEPES solution (pH 7.4) containing 14 mM glucose, 1% essential amino acid mixture, 1% (w/v) BSA, 0.01% (w/v) STI, 0.5 mM CaCl2 and incubated (5% CO2, at 37 °C) for 7 h in the absence (non-treated control) or the presence of compounds at different concentrations. After the treatment, cells were incubated (5% CO2, at 37 °C) with 0.5 mg/mL MTT for 2 h and the formazan crystals were solubilized with DMSO (v/v). The optical density was read at 570 nm with a reference wavelength of 630 nm. Non-treated cell viability was set as 100%.

[2] = tested on: Bovine brain microtubule protein (MTP); assay: Tubulin polymerization inhibition assay (turbidimetry); format: biochemical; conditions: 1.5 mg/mL MTP; IC50 calculated only if more than 50% inhibition at 20 µM; read-out: TPI IC50
Description: Bovine brain microtubule protein (MTP) was isolated as previously described. Briefly, it was purified according to the modified Shelanski method by two cycles of temperature-dependent assembly/disassembly.
Tubulin polymerization was monitored using a Helios α spectrophotometer by measuring the increase in turbidity at 450 nm, caused by a shift from 4 °C to 37 °C, which allows the in vitro MTP self-disassembly and assembly respectively. […] Firstly, ligands at 20 µM concentration, were incubated with 1.5 mg/mL MTP at 20 °C for 30 min and subsequently cooled on ice for 10 min. Then, the experiment starts at 4 °C to establish the initial baseline. The assembly process was initiated by shifting of the temperature to 37 °C and the turbidity produced can be measured by an absorbance increase. After reaching a stable plateau, the temperature was switched back to 4 °C to return to the initial absorption values. The difference in amplitude between the stable plateau and the initial baseline of the curves was taken as the degree of tubulin polymerization for each experiment. […] All the measurements were carried out in at least two independent experiments using MTP from different isolation.

[3] = tested on: HeLa cervix epithelioid carcinoma; assay: MTT cell antiproliferative assay, HeLa; format: cell-based; conditions: Homo sapiens, 72 h
Description: (§1) The in vitro antiproliferative activity of the synthesized compounds was evaluated by a colorimetric reaction, using the MTT reagent. They were tested against three different human tumor cell lines: HeLa cervix epithelioid carcinoma, HT-29 colon adenocarcinoma, and MCF-7 breast adenocarcinoma. […] Moving the alkylamino substituent from a para to a meta position with respect to the bridge results in potency reduction, except for the phenstatin analogue 1f. However, the introduction of a nitrogen atom to form 2-dimethylaminopyridine derivatives entails a loss of activity, both for phenstatin analogues (1b, 2b), while for isocombretastatins, it only involves a 2–3 times potency decrease (3b). For combretastatins, it implies an improvement in the cytotoxicity values down to tenths of nanomolar (8b). […] On the other hand, the best 2-dimethylaminopyridine was combretastatin 8b. All ammonium salts derivatives were not cytotoxic at micromolar concentrations.
(§2) HeLa (human cervical carcinoma) and MCF-7 (human breast carcinoma) cell lines were cultured in Dulbecco’s Modified Eagles Medium (DMEM) supplemented with 2 mM L-glutamine (Lonza-Cambrex, Karlskoga, Sweden), 10% (v/v) heat inactivated fetal bovine serum (HIFBS) (Lonza-Cambrex) and 100 μg/mL streptomycin-100 IU/mL penicillin (Lonza-Cambrex) at 37 °C in humidified 95% air and 5% CO2. HT-29 (human colon carcinoma) cells were cultured at 37 °C in complete RPMI 1640 medium containing 2 mM L-glutamine, 10% (v/v) HIFBS and 100 μg/mL streptomycin-100 IU/mL penicillin in humidified 95% air and 5% CO2 atmosphere.
(§3) The effect of the different compounds on the proliferation of human cell lines was determined by using the MTT (3-[4,5-dimethylthiazol-2-yl]-2,5-diphenyltetrazolium bromide) reagent (MTT Thiazolyl Blue Tetrazolium Bromide, Sigma-Aldrich, St. Louis, MO, USA) dissolved in PBS 5 mg/mL. Cell viability was evaluated seeding 100 µL of cells in exponential growth phase with appropriate cell line concentration (1.5 × 10^4 HeLa and MCF-7 cells/mL and 3 × 10^4 HT-29 cells/mL) in complete medium in 96-well plates at 37 °C and 5% CO2. After 24 h incubation to allow cells to attach to the plates the ligands were added at different concentrations from 10^−5 to 10^−9 M. The effect on the proliferation was evaluated 72 h post-treatment by adding the MTT reagent (10 µL/well) to a final concentration of 0.5 mg/mL and the plate was further incubated for another 3 h. After this period, the supernatant was removed, the MTT violet crystals formed on the bottom of each well were dissolved in DMSO (100 µL/well) and subsequently, the absorbance of the color complex was read at 570 nm using a multi-well plate reader. Compounds were dissolved in dimethyl sulfoxide (DMSO) and the final solvent concentrations never exceeded 0.5% (v/v). The control wells included treated cells with 0.5% (v/v) DMSO and the positive control. Measurements were performed in triplicate, and each experiment was repeated three times. […] Nonlinear curves fitting the experimental data were carried out for each compound.

[4] = tested on: HT-29 colon adenocarcinoma; assay: MTT cell antiproliferative assay, HT-29 (without or with verapamil); format: cell-based, human; conditions: for IC50: Homo sapiens, HT-29, MTT, 72 h
Description: as §1
As observed in Table 1, there are no significant changes in the IC50 values for most compounds, except for combretastatins 8a and 8i.
Acquired resistance to antitumor drugs is one of the more important problems of chemotherapy, also affecting tubulin-targeting drugs. In order to ascertain the impact of multidrug resistance phenotypes on the action of the compounds, we have measured the cell proliferation inhibitory activity of HT-29 cells in the presence of verapamil, a known P-glycoprotein 1/multidrug resistance protein 1 (MDR1) inhibitor at a concentration of 10 µM, not affecting cell proliferation. […] Except for the combretastatin analogues 8a and 8i, the affected drugs are all pyridine drugs.
as §2, §3

[5] = Aqueous solubility determination (shake flask, UV); format: physicochemical; conditions: for solubility at 48 h: thermodynamic from solid
Description: One of the expected effects of introducing nitrogen substitutions on combretastatin and isocombretastatin analogues, is an increase in aqueous solubility. Solubility was spectrophotometrically determined in phosphate buffer at pH 7. UV absorbance of soluble compounds was measured after shaking and microfiltration. […] In addition, aqueous solubilities of the corresponding ammonium salts are over 1 mg/mL.
This great improvement is probably due to the symmetry reduction, combined with an increased polarity for 2g.
Compounds were stirred in a solution of phosphate buffer at pH 7.0 (1–2 mg of compound in 300 µL of buffer) during 48 h. After that, the samples were filtered over a […] filter to discard the insoluble residues. In order to determine the maximum wavelength of absorbance for each compound, a scan between 270 and 400 nm was performed. Once the wavelength was selected, a calibration line was performed and the concentration of the stirred and filtered samples was measured.

[6] = tested on: HeLa, HT-29 and MCF-7 human tumor cell lines; assay: Antiproliferative activity over the three human tumor cell lines (MTT); format: cell-based; conditions: Homo sapiens, range over the cell lines, Table S1; read-out: Cytotoxicity range (range of antiproliferative IC50 values)
Description: as §1
The antiproliferative activity of the compounds against three human tumor cell lines of different origins (i.e., HeLa cervix epithelioid carcinoma, HT-29 colon adenocarcinoma and MCF-7 breast adenocarcinoma) was evaluated by the MTT method. […] This high success rate is the result of a combination of favorable scaffolds and substituents, and it is similar to those of previous reports on related series. […] We have previously observed the same trend for related compounds acting at the colchicine site of tubulin [10, 23]. For this pyridine series, we observed a different potency trend when we compare the 4-amino-3-pyridine and the 3-amino-4-pyridine derivatives. […] This different behavior is probably a reflection of their different shape, combined with the different geometries imposed by different bridges. We have previously shown that the potency ordering isocombretastatins similar to oximes higher than benzophenones could be explained by the higher conjugation of the ketones with the aromatic rings, which imposes a more planar disposition than those required for high affinity colchicine site binding. For the 3-amino-4-pyridine series, more planar structures are required in order to avoid the bumping of the amino substituents with tubulin out the plane of the aromatic ring, an effect which we have previously shown to impact the potency of 3-substituted indolecombretastatins and dimethylaminophenyl phenstatins. This different geometrical disposition of the amino substituents, and the different adaptability of their corresponding pockets in the two series, can also account for the preference of bulkier substituents at position 3, such as the pyrrolidine rather than the smaller dimethylamino. […] The opposite is observed for the 4-dimethylaminophenyl phenstatins 1a and 1b. […] The remarkable levels of solubility achieved for the quaternary ammonium salts came unfortunately at the expenses of biological activity.
The effect of the different compounds on the proliferation of human cell lines was determined by using the MTT (3-[4,5-dimethylthiazol-2-yl]-2,5-diphenyltetrazolium bromide) reagent (MTT Thiazolyl Blue Tetrazolium Bromide, Sigma-Aldrich, St. Louis, MO, USA) dissolved in PBS 5 mg/mL. Cell viability was evaluated seeding 100 µL of cells in exponential growth phase with appropriate cell line concentration (1.5 × 10^4 HeLa and MCF-7 cells/mL and 3 × 10^4 HT-29 cells/mL) in complete medium in 96-well plates at 37 °C and 5% CO2. After 24 h incubation to allow cells to attach to the plates the ligands were added at different concentrations from 10^−5 to 10^−9 M. The effect on the proliferation was evaluated 72 h post-treatment by adding the MTT reagent (10 µL/well) to a final concentration of 0.5 mg/mL and the plate was further incubated for another 3 h. […]

[7] = tested on: MCF-7 breast adenocarcinoma; assay: MTT cell antiproliferative assay, MCF-7; format: cell-based; conditions: Homo sapiens, MCF7, 72 h
Description: as §1, §2, §3

[8] = phosphate buffer, pH 7, aqueous buffer, phosphate buffer pH 7.0, 48 h stirring, filtered, UV, read-out: Solub.
[9] = aqueous buffer, phosphate buffer pH 7.0, 48 h stirring, filtered, UV, read-out: Solub.

Compound | IC50 [2] | IC50 [3] | IC50 [4] | IC50 [7] | solubility at 48 h [5, 8] | solubility at 48 h ([5]; phosphate buffer, pH 7, aqueous buffer, phosphate buffer pH 7, stated in text, read-out: aqueous solubility) | improvement of HT-29 IC50 after verapamil treatment ([4]; 10 µM verapamil) | live cells with respect to the non-treated control (means ± S.E.M.) [1] | Solub. ([5]; phosphate buffer pH 7.0, 48 h stirring, filtered, UV) | IC50 [6] | solubility at 48 h [5, 9]
CC(=O)O[C@H]1C[C@H](O[C@H]2[C@@H](O)C[C@H](O[C@H]3[C@@H](O)C[C@H](O[C@H]4CC[C@@]5(C)[C@H](CC[C@@H]6[C@@H]5C[C@@H](O)[C@]5(C)[C@@H](C7=CC(=O)OC7)CC[C@]65O)C4)O[C@@H]3C)O[C@@H]2C)O[C@H](C)[C@H]1O [Acetyldigoxin, acetyl-digoxin, reference compound] |  |  |  |  |  |  |  | 84.41 ± 9.64% |  |  | 
COc1cc(C(=O)c2ccc(N(C)C)cc2)cc(OC)c1OC [Compound 1a, (4-(Dimethylamino)phenyl)(3,4,5-trimethoxyphenyl)methanone] | > 20 µM | 90 nM | 400 nM |  |  |  |  |  | 48 µg/mL |  | 
COc1cc(C(=O)c2ccc(N3CCCC3)nc2)cc(OC)c1OC [Compound 1c, (6-(Pyrrolidin-1-yl)pyridin-3-yl)(3,4,5-trimethoxyphenyl)methanone] | > 20 µM | 1600 nM | 5170 nM | 2330 nM |  |  |  |  |  | > 1000 nM | 
COc1ccc(C(=O)c2ccc(N(C)C)cc2)c(OC)c1OC [Compound 1d, (4-(Dimethylamino)phenyl)(2,3,4-trimethoxyphenyl)methanone] | > 20 µM | 413 nM | 500 nM | 407 nM |  |  |  |  |  | 407 to 650 nM | 
COc1cc(C(=O)c2ccnc(N(C)C)c2)cc(OC)c1OC [Compound 1g, (2-(Dimethylamino)pyridin-4-yl)(3,4,5-trimethoxyphenyl)methanone] | > 20 µM | 387 nM | 313 nM | 223 nM | 33.8 µg/mL (≈ 107 µM) |  |  |  |  | 223 to 387 nM | 
COc1cc(C(=NO)c2ccc(N(C)C)cc2)cc(OC)c1OC [Compound 2a, (4-(Dimethylamino)phenyl)(3,4,5-trimethoxyphenyl)methanone oxime] | > 20 µM | 800 nM | 1000 nM |  |  |  |  |  |  |  | 74 µg/mL (≈ 224 µM)
COc1cc(C(=NO)c2ccnc(N(C)C)c2)cc(OC)c1OC [Compound 2g, (2-(Dimethylamino)pyridin-4-yl)(3,4,5-trimethoxyphenyl)methanone oxime] | > 20 µM | 533 nM | 3370 nM | 407 nM | 583 µg/mL (≈ 1760 µM) | ~600 µg/mL (≈ 1810 µM) |  |  |  |  | 
C=C(c1ccc(N(C)C)cc1)c1cc(OC)c(OC)c(OC)c1 [Compound 3a, N,N-Dimethyl-4-(1-(3,4,5-trimethoxyphenyl)vinyl)aniline] | 1.9 µM | 40 nM | 70 nM |  |  |  |  |  |  |  | 30 µg/mL (≈ 95.7 µM)

Second part, led by results:

IC50 [2] | IC50 [3] | IC50 [4] | IC50 [7] | solubility at 48 h [5, 8] | solubility at 48 h ([5]; phosphate buffer, pH 7, aqueous buffer, phosphate buffer pH 7, stated in text, read-out: aqueous solubility) | improvement of HT-29 IC50 after verapamil treatment ([4]; 10 µM verapamil) | Compound | live cells with respect to the non-treated control (means ± S.E.M.) [1] | Solub. ([5]; phosphate buffer pH 7.0, 48 h stirring, filtered, UV) | IC50 [6] | solubility at 48 h [5, 9]
> 20 µM | 1000 nM | 4000 nM | 2000 nM |  |  |  | C=C(c1ccc(N(C)C)cc1)c1ccc(OC)c(OC)c1OC [Compound 3d, N,N-dimethyl-4-(1-(2,3,4-trimethoxyphenyl)vinyl)aniline] |  |  | > 1000 nM | 
> 20 µM | 403 nM | 397 nM | 367 nM | 136 µg/mL (≈ 433 µM) |  |  | C=C(c1ccnc(N(C)C)c1)c1cc(OC)c(OC)c(OC)c1 [Compound 3g, N,N-Dimethyl-4-(1-(3,4,5-trimethoxyphenyl)vinyl)pyridin-2-amine] |  |  |  | 
> 20 µM | 257 nM | 477 nM | 317 nM | 62 µg/mL (≈ 182 µM) |  | > 2 fold | C=C(c1ccnc(N2CCCC2)c1)c1cc(OC)c(OC)c(OC)c1 [Compound 3h, 2-(Pyrrolidin-1-yl)-4-(1-(3,4,5-trimethoxyphenyl)vinyl)pyridine] |  |  | 230 to 477 nM | 
